Laboratory results reported in ChEMBL document CHEMBL5518167, “Degradation of Polo-like Kinase 1 by the Novel Poly-Arginine N-Degron Pathway PROTAC Regulates Tumor Growth in Nonsmall Cell Lung Cancer” (J Med Chem, 2024).
Active and inactive are the calls of the source. The calls are words filed in the database; no cut-off is given here. Where a SMILES comes first, the peptide text is derived from it. Bridges are numbered along the chain shown (N, C = ends). [ ]: non-standard residue; d: D form. His(π-(CH2)8Ph) = N[C@@H](Cc1cncn1CCCCCCCCc1ccccc1)C(=O)O; pT = C[C@@H](OP(=O)(O)O)[C@H](N)C(=O)O; Ahx = NCCCCCC(=O)O

Legend:
A549 [1] = assay: Cytotoxicity against human A549 cells assessed as change in morphology at 25 uM incubated for 24 hrs by phase contrast microscopic assay; assay type: functional, cell-based
HeLa [2] = assay: Induction of cell cycle arrest in human HeLa cells assessed as fold increase in S phase population at 10 uM incubated for 24 hrs by PI staining based flow cytometry analysis; assay type: functional
HeLa [3] = assay: Cytotoxicity against human HeLa cells incubated for 24 hrs by MTT assay; assay type: functional, cell-based
PC-9 [4] = assay: Cytotoxicity against human PC-9 cells incubated for 24 hrs by MTT assay; assay type: functional, cell-based; settings: PC-9, 24 h
[5] = Drug uptake in human HeLa cells nucleus at 10 uM incubated for 24 hrs by PI staining based inverted confocal laser scanning fluorescence microscopic anlaysis; assay type: ADME, subcellular
UBR/PLK1 (Homo sapiens) [6] = assay: Protac activity at UBR/PLK1 in human A549 cells assessed as PLK1 degradation at 25 uM incubated for 2 to 24 hrs by immunoblotting analysis; settings: time 2-24 hrs
HeLa [7] = assay: Induction of cell cycle arrest in human HeLa cells assessed as G2/M phase arrest at 10 uM incubated for 24 hrs by PI staining based flow cytometry analysis; assay type: functional
UBR/PLK1 (Homo sapiens) [8] = assay: Protac activity at UBR/PLK1 in human PC-9 cells assessed as PLK1 degradation at 25 uM incubated for 24 hrs by immunoblotting analysis
UBR/PLK1 (Homo sapiens) [9] = assay: Protac activity at UBR/PLK1 in human NCI-H1975 cells assessed as PLK1 degradation at 10 uM incubated for 2 to 24 hrs by immunoblotting analysis; settings: time 2-24 hrs
UBR/PLK1 (Homo sapiens) [10] = assay: Protac activity at UBR/PLK1 in human PC-9 cells assessed as PLK1 degradation at 30 uM incubated for 24 hrs by immunoblotting analysis
PC-9 [11] = assay: Induction of cell cycle arrest in human PC-9 cells assessed as fold increase in S phase population at 10 uM incubated for 24 hrs by PI staining based flow cytometry analysis; assay type: functional
HeLa [12] = assay: Induction of apoptosis in human HeLa cells at 18 uM incubated for 24 hrs by fluorescence microscopic analysis; assay type: functional, cell-based
UBR/PLK1 (Homo sapiens) [13] = assay: Protac activity at UBR/PLK1 in human HeLa cells assessed as PLK1 degradation incubated for 24 hrs by immunoblotting analysis; settings: dose 25-100 µM
[14] = as above
UBR/PLK1 (Homo sapiens) [15] = assay: Protac activity at UBR/PLK1 in human PC-9 cells assessed as PLK1 degradation at 10 uM incubated for 2 to 24 hrs by immunoblotting analysis; settings: time 2-24 hrs
UBR/PLK1 (Homo sapiens) [16] = assay: Protac activity at UBR/PLK1 in human NCI-H1975 cells assessed as PLK1 degradation incubated for 24 hrs by immunoblotting analysis; settings: dose 5-25 µM
[17] = as above
UBR/PLK1 (Homo sapiens) [18] = assay: Protac activity at UBR/PLK1 in human PC-9 cells assessed as PLK1 degradation incubated for 24 hrs by immunoblotting analysis; settings: dose 5-25 µM
[19] = as above
HeLa [20] = assay: Antitumor activity against human HeLa cells xenografted in nude mouse assessed as fold reduction in tumor size at 10 mg/kg, iv; assay type: functional
[21] = biological target: E3 ubiquitin-protein ligase UBR1 (Homo sapiens) (UniProt Q8IWV7); assay: Binding affinity to UBR1 (unknown origin) expressed in HEK293T cells incubated for 3 hrs by pull-down assay; assay type: cell-based
Chain of E3 ubiquitin-protein ligase UBR1 (Homo sapiens) (Q8IWV7 whole entry): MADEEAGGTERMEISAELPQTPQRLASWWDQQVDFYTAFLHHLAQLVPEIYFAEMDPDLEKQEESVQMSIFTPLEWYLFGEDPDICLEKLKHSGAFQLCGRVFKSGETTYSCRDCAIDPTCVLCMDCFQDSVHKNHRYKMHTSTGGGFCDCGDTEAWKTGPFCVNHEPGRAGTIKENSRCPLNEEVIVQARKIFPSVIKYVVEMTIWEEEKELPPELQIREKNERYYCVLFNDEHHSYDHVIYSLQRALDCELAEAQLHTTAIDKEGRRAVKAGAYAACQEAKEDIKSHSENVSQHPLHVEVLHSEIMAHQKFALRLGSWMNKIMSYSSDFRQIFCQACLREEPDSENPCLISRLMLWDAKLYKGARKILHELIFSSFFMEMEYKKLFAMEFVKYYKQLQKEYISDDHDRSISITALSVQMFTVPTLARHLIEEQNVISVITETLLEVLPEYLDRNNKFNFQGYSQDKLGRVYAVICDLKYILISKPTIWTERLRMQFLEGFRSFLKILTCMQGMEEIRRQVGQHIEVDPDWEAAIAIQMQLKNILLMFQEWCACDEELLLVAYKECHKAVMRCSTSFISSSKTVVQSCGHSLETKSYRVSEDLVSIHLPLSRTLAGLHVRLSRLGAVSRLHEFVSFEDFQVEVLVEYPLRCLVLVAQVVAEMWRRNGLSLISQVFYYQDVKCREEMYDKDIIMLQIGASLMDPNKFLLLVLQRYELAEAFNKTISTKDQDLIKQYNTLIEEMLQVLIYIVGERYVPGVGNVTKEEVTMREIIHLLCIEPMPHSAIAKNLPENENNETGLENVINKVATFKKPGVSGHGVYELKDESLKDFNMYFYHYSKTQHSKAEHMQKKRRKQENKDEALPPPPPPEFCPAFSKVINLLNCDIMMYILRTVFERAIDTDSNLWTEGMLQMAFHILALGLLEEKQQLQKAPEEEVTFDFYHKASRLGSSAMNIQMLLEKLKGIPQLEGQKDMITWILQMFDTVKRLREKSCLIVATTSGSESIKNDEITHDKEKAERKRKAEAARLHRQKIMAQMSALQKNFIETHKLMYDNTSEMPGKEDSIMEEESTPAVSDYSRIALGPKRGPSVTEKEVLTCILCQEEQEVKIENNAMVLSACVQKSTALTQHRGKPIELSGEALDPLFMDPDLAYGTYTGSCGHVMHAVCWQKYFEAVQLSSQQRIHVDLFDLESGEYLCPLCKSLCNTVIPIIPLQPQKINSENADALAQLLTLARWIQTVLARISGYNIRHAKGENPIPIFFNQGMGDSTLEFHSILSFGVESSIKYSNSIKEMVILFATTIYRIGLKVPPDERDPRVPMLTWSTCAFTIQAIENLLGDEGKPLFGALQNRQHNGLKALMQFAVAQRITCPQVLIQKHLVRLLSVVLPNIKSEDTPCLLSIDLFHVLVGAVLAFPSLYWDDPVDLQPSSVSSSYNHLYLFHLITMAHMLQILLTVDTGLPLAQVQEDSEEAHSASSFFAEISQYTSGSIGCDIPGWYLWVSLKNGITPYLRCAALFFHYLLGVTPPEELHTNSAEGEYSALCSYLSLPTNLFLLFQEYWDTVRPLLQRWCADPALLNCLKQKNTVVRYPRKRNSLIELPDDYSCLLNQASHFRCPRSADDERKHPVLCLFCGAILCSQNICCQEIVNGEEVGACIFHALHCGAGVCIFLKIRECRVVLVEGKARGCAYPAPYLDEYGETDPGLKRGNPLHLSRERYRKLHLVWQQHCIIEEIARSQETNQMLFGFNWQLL

PC-9 [22] = assay: Induction of apoptosis in human PC-9 cells at 25 uM incubated for 24 hrs by fluorescence microscopic analysis; assay type: functional, cell-based
NCI-H1975 [23] = assay: Antitumor activity against human NCI-H1975 cells harboring L858R/T790M double mutant xenografted in nude mouse assessed as fold reduction in tumor growth at 10 mg/kg, iv administered for every 3 days in presence of 5 mg/kg osimertinib; assay type: functional
NCI-H1975 [24] = assay: Induction of cell cycle arrest in human NCI-H1975 cells assessed as G2/M phase arrest at 10 uM incubated for 24 hrs by PI staining based flow cytometry analysis; assay type: functional
HeLa [25] = assay: Cytotoxicity against human HeLa cells assessed as change in morphology at 18 uM incubated for 24 hrs by phase contrast microscopic assay; assay type: functional, cell-based
A549 [26] = assay: Induction of cell cycle arrest in human A549 cells assessed as G2/M phase arrest at 10 uM incubated for 24 hrs by PI staining based flow cytometry analysis; assay type: functional
UBR/PLK1 (Homo sapiens) [27] = assay: Protac activity at UBR/PLK1 in human NCI-H1975 cells assessed as PLK1 degradation at 30 uM incubated for 24 hrs by immunoblotting analysis
A549 [28] = assay: Antitumor activity against human A549 cells xenografted in nude mouse assessed as fold reduction in tumor size at 10 mg/kg, iv; assay type: functional
PC-9 [29] = assay: Antitumor activity against human PC-9 cells xenografted in nude mouse assessed as fold reduction in tumor size at 10 mg/kg, iv; assay type: functional
UBR/PLK1 (Homo sapiens) [30] = assay: Protac activity at UBR/PLK1 in human HeLa cells assessed as PLK1 degradation at 4 uM preincubated for 24 hrs followed by compound washout and measured after 24 to 48 hrs by immunoblotting analysis
[31] = Drug uptake in human HeLa cells cell membrane at 10 uM incubated for 24 hrs by PI staining based inverted confocal laser scanning fluorescence microscopic analysis; assay type: ADME
NCI-H1975 [32] = assay: Induction of apoptosis in human NCI-H1975 cells at 25 uM incubated for 24 hrs by fluorescence microscopic analysis; assay type: functional, cell-based
UBR/PLK1 (Homo sapiens) [33] = assay: Protac activity at UBR/PLK1 in human HeLa cells assessed as PLK1 degradation at 5 uM incubated for 24 hrs by immunoblotting analysis
[34] = Toxicity in nude mouse xenografted with human NCI-H1975 cells assessed as change in body weight at 10 mg/kg, iv administered for every 3 days; assay type: organism-based; settings: in vivo, 72 h
A549 [35] = assay: Induction of cell cycle arrest in human A549 cells assessed as delay in S phase progression at 10 uM incubated for 24 hrs by PI staining based flow cytometry analysis; assay type: functional

- Drug uptake [5]: Active
- Activity (UBR/PLK1 (Homo sapiens) [6]): Active
- Activity (UBR/PLK1 (Homo sapiens) [8]): > 90%
- Activity (UBR/PLK1 (Homo sapiens) [9]): Active
- Emax (UBR/PLK1 (Homo sapiens) [10]): 100%
- Activity (UBR/PLK1 (Homo sapiens) [13]): Dose-Dependent Effect
- DC50 [14]: 2500 nM
- Activity (UBR/PLK1 (Homo sapiens) [15]): Active
- Activity (UBR/PLK1 (Homo sapiens) [16]): Dose-Dependent Effect
- DC50 [17]: 12 µM
- Activity (UBR/PLK1 (Homo sapiens) [18]): Dose-Dependent Effect
- DC50 [19]: 12 µM
- Activity [21]: Active
- Emax (UBR/PLK1 (Homo sapiens) [27]): 95%
- Activity (UBR/PLK1 (Homo sapiens) [30]): Active
- Drug uptake [31]: Active
- Emax (UBR/PLK1 (Homo sapiens) [33]): 80%
Structure (SMILES): C[C@@H](OP(=O)(O)O)[C@@H]1NC(=O)[C@H](Cc2cncn2CCCCCCCCc2ccccc2)NC(=O)[C@@H](NC(=O)CCCCCNC(=O)[C@H](CCCNC(=N)N)NC(=O)[C@H](CCCNC(=N)N)NC(=O)[C@H](CCCNC(=N)N)NC(=O)[C@H](CCCNC(=N)N)NC(=O)[C@H](CCCNC(=N)N)NC(=O)[C@H](CCCNC(=N)N)NC(=O)[C@H](CCCNC(=N)N)NC(=O)[C@H](CCCNC(=N)N)NC(=O)[C@H](CCCNC(=N)N)NC(=O)[C@H](CCCNC(=N)N)NC(=O)[C@H](CCCNC(=N)N)NC(=O)[C@@H](N)CCCNC(=N)N)CCC(=O)NCCCC[C@@H](C(N)=O)NC1=O (H-RRRRRRRRRRRR[Ahx]E[His(π-(CH2)8Ph)][pT]K-NH2; lactam 14-17)
- Activity (A549 [1]): Active
- Activity (HeLa [2]): Active
- IC50 (HeLa [3]): 18 µM
- IC50 (PC-9 [4]): 17.1 µM
- Activity (HeLa [7]): 21%
- Activity (PC-9 [11]): Active
- Activity (HeLa [12]): Active
- fold change (FC) (HeLa [20]): 3.4
- Activity (PC-9 [22]): Active
- fold change (FC) (NCI-H1975 [23]): ~7
- Activity (NCI-H1975 [24]): 11%
- Activity (HeLa [25]): Active
- Activity (A549 [26]): 10%
- fold change (FC) (A549 [28]): 6.3
- fold change (FC) (PC-9 [29]): 5.2
- Activity (NCI-H1975 [32]): Active
- Activity [34]: Non-Toxic
- Activity (A549 [35]): Active
